Test results taken from patent US20060188945A1, “Screening methods” (priority 2004, published 2006).

Legend:
full-length human GHR = biological target: T1, full-length human GHR (Homo sapiens, UniProt P10912); assay: Immunofluorescence of subcellular distribution and internalization of growth hormone receptor; type: cell-based; conditions: WRL-68 cells transfected with human GHR; immunofluorescence using Mab263; 10-100 nM GH or 2 μM BVT.3693
T1 construct: plasmid DNA encoding the full-length human GHR; expressed in transfected cells; host or cells: WRL-68 cells
T1 sequence (P10912 19-638): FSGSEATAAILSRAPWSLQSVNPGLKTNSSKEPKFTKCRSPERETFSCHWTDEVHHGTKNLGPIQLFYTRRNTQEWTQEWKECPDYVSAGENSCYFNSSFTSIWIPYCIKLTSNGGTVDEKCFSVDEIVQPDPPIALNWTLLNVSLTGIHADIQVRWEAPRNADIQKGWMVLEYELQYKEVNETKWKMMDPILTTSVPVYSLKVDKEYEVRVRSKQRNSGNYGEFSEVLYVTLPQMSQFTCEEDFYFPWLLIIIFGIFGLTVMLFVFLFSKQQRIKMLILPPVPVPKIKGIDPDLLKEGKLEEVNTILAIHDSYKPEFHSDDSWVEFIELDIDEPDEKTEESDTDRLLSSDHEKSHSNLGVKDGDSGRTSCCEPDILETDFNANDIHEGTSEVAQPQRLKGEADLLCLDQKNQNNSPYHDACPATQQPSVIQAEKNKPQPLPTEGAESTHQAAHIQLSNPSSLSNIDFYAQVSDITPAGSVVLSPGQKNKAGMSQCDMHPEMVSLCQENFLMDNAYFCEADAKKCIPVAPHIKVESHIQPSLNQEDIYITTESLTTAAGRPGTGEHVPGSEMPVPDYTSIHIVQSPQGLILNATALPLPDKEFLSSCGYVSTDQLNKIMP
Protocol: WRL-68 cells were cultured in EMEM medium with NaHCO3 (Statens Veterinärmedicinska Anstalt, Uppsala, Sweden), supplemented with 10% fetal bovine serum (FBS), 2% L-Glutamine, 1% Pyruvate, and non-essential acids (NEA), all from GIBCO, at 37° C. in 5% CO2.
Transfection: Cells were transfected with plasmid DNA encoding the full-length human GHR (pMB 1288, 2 μg/μl) using DOTAP Liposomal Transfection Reagent (Roche), according to the manufacturers instructions. WRL-68 cells in T75 flasks were transfected with 10 μg DNA for each flask. 5 μl (10 μg) DNA was diluted with 250 μl OPTIMEM1 medium (GIBCO), and mixed with 75 μl DOTAP reagent diluted in 175 μl OPTIMEM1 medium. The mixture was incubated for 10 minutes and then mixed with 10 ml OPTIMEM1 medium. Cells were washed once and then incubated for 4 hours with the DNA/DOTAP transfection mix. The transfection reagents were removed and fresh culture medium was added. Cells were re-seeded into new culture dishes the following day.
Stimulation: 3×10^4 cells were seeded on chamber slides in eight-well dishes and grown for two days. […] After treatment, the cells were rinsed twice with ice-cold PBS. Fixation was performed with 4% paraformaldehyde for 20 minutes.
Staining with rabbit antiserum: The chamber slides were washed twice by immersion of the slides in a container with 0.05% TBS-Tween. […]

[1] = biological target: T2, membrane bound GHR on a human osteosarcoma cell line (Homo sapiens, UniProt P10912); assay: DELFIA assay for determination of receptor on cell surface; type: cell-based; conditions: stimulated for 1.5 hours with increasing concentrations, Eu-labeled anti GH-rec antibody BB117, FIG. 2
T2 construct: endogenous in cells
T2 sequence (P10912 19-638): T1 sequence (P10912 19-638)
Protocol: The following method was used to quantify the number of GH receptors on the cell surface after stimulation with different compounds.
On day 1, WRL-68 cells were seeded at a density of 15,000 cells per well and incubated under standard cell culture conditions.
On day 3, cells were washed with serum-free medium and incubated 1 hour prior to stimulation with a dose-response of BVT.3693. The cells were then washed with ice-cold PBS (Dulbecco PBS-A) and fixated with 4% paraformaldehyde on ice for 20 minutes. Thereafter the plates were washed with PBS and stored in a refrigerator until used. […]
On day 4, the plates were washed with PBS using a DELFIA plate washer. […] The amount of Europium fluorescence was determined by reading in a Victor analysis instrument.
To correlate the amount of Europium fluorescence measured (which fluorescence is proportional to the number of GH receptors present on the cell surface) to the number of cells attached to the bottom of the well after all the washing steps, we developed an internal standard. […] Instead, we developed a method to quantify the amount of DNA in the wells as an internal standard. […]
10,000 cells per well were seeded the day before stimulation. […] Receptor quantification was performed using an Eu-labeled anti GH-rec antibody BB117, as described above (simplified protocol).

Structure (SMILES): Cc1ccc(S(N)(=O)=O)cc1NC(=O)c1ccc(Br)o1 [BVT.3693, N-[5-(aminosulfonyl)-2-methylphenyl]-5-bromo-2-furamide]
- subcellular distribution of GHR after stimulation (full-length human GHR): intracellular staining, with both a nuclear localisation and a cytoplasmic localisation of the receptor
- amount of GHR on the surface of the cells [1]: dose dependent reduction
